From patent publication US12475972B2, “Prediction system for identifying key heterogeneous molecules driving tumor metastasis” (NANJING HANWEI PUBLIC HEALTH TECHNOLOGY CO., LTD., priority 2021, dated 2025)
Each block holds one molecule with its values, some of them ahead of it.

Tests used:
BGC823-LPC1 = BGC823-LPC1 passive metastasis model; assay type: in vivo, mice; settings: compared to the solvent control group
Procedure: A passive metastasis model was constructed by extracting primary cells BGC823-LPC1 from residual lung metastases after joint intervention on JWA and MDM2. On the second day after injecting cells into the tail vein of the model mice, they were grouped and administered. During the medication period, they were weighed on time. At the end of the modeling, the lung wet weight of each group of mice was measured, and the situation of lung metastases was observed.

BGC823-LPC2 cells = assay: BGC823-LPC2 passive metastasis model; assay type: in vivo, nude mice; settings: compared with the solvent control group
From the text: On the basis of the positive results obtained in the cell model, the animal model was then validated. A passive metastasis model was constructed using BGC823-LPC2 cells injected through the tail vein of nude mice. The mice were randomized on the second day and given control solvent, EGCG, WP-1130 alone, and WP-1130 plus sh-PFN1 lentivirus in a sequential manner.

FASN [1] = assay: Protein mass spectrometry of residual lung metastatic lesions; assay type: in vivo, mice
From the text: On the basis of the above model, primary cells were extracted from the residual gastric cancer cells metastatic foci of the lungs of EGCG-treated mice, named BGC823-LPC2. Firstly, protein mass spectrometry analysis was continued on the residual metastatic lesions in the lungs of the EGCG group and the combined treatment group with SP141 and JP3, with a focus on observing the protein expression changes of each independent molecule identified in 1.4 above.

[2] = test system: BGC823 cells and BGC823-LPC1; assay: Transwell experiment after FASN inhibitor EGCG; assay type: cell-based; settings: different concentrations, 24 hours
Procedure: Further validation of the relationship between FASN and gastric cancer metastasis using transwell and scratch experiments: BGC823 cells and BGC823-LPC1 (primary cells of residual lung metastases in the animal model SP141 and JP3 combined intervention group) were treated with different concentrations of FASN inhibitor EGCG for 24 hours, followed by transwell experiments. […] The inhibition rate of perforation cells was similar in both types of cells (FIG. 20B). […] As shown in FIGS. 20A-20D, intervention on FASN can inhibit the migration of gastric cancer cells.

FASN [3] = assay: Immunoblotting of FASN and FAK after EGCG; assay type: cell-based; settings: dose-response
BGC823 LPC2 cells = assay: Scratch experiment after WP-1130; assay type: cell-based
BGC823-LPC2 = assay: Transwell experiment in BGC823-LPC2 cells; assay type: cell-based; settings: treated 8 hours, dose-response
Procedure: To verify the relationship between USP9X and gastric cancer metastasis, cultured BGC823 LPC2 cells were first treated with USP9X inhibitor WP-1130 (existing product) for 8 hours before a transwell experiment. […] Thus, it can be seen that inhibiting the expression of USP9X can effectively reduce the migration of gastric cancer cells.
For the heterogeneous molecule PFN1, a low expression lentiviral plasmid sh-PFN1 was constructed due to the lack of commercialized inhibitor compounds. Transwell experiments were performed after transfection of sh-con and sh-PFN1 in BGC823-LPC2 for 48 hours.

USP9X = assay: Immunoblotting of USP9X and p-AKT after WP-1130; assay type: cell-based; settings: dose-response
BGC823 = assay: CCK-8 half inhibitory concentration on gastric cancer cells; assay type: cell-based; settings: CCK-8, BGC823
BGC823-luc = BGC823-luc tail vein passive metastasis model, in vivo fluorescence imaging; set-up: species or system nude mice
Procedure: In an in vivo model, fluorescent labeled gastric cancer cells BGC823-luc were injected into the tail vein of nude mice to construct a passive metastasis model of gastric cancer. Drug intervention began on the second day after cell inoculation (FIG. 11A). […] The weight of the mice of the drug intervention group was relatively stable and in good condition (FIG. 11B). […] Thus, as shown in FIGS. 11A-11D, the joint intervention of JWA and MDM2 has a synergistic inhibitory effect on gastric cancer metastasis in vivo.

[4] = test system: gastric cancer cell line MFC; assay: MFC abdominal implant metastasis model; assay type: in vivo, mouse
Procedure: The mouse-derived gastric cancer cell line MFC were selected to construct an abdominal implant metastasis model. On the second day of cell inoculation, different doses of SP141 were administered intraperitoneally for intervention. The modeling was completed and the number of abdominal metastatic nodules was recorded.

[5] = test system: gastric cancer cells BGC823, SGC7901, and MFC; assay: Cell scratch assay after SP141; assay type: cell-based
AGS = assay: CCK-8 half inhibitory concentration on gastric cancer cells; assay type: cell-based; settings: CCK-8, AGS
MDM2 [6] = assay: MDM2 and JWA protein expression in BGC823 cells after SP141; assay type: cell-based; settings: BGC823, 0, 0.25, 0.5 μM, 24 hours
Procedure: With a cell model, the mutual regulation between JWA and MDM2 proteins was examined. […] Thereafter, 0, 0.25, 0.5 μM SP141 were used to inhibit the expression level of MDM2 in gastric cancer cells BGC823 for 24 hours. […] Thus, it can be seen that as shown in FIGS. 9A-9C, in gastric cancer, JWA and MDM2 have no mutually regulatory relationship at the protein and mRNA levels, and their respective biological functions on gastric cancer cells are independent.

[7] = test system: gastric cancer cells BGC823, SGC7901, and MFC; assay: Perforated cell count (transwell) after SP141; assay type: cell-based; settings: different doses, 24 hours
SGC7901 = assay: CCK-8 half inhibitory concentration on gastric cancer cells; assay type: cell-based; settings: CCK-8, SGC7901
AGS cells = assay: Transwell assay in AGS cells, Flag-JWA plasmid and SP141; assay type: cell-based; settings: compared to the control group
From the text: Thus, as shown in FIGS. 10A-10B, the combined intervention of JWA and MDM2 has a synergistic inhibitory effect on gastric cancer cell migration.

MGC803 = assay: CCK-8 half inhibitory concentration on gastric cancer cells; assay type: cell-based; settings: CCK-8, MGC803
B16F10 melanoma cells = assay: B16F10 tail vein passive lung metastasis model; assay type: in vivo, mice; settings: different doses, dose-response
Procedure: A passive metastasis model was constructed by injecting B16F10 melanoma cells into the tail vein of mice. On the second day of cell inoculation, the mice were grouped, and Ctrl-R or JP1 peptides were injected intraperitoneally for intervention. […] Note: Ctrl-R peptide and JP1 peptide can be found in Cui J, et al. Theranotics 2020; 10 (18): Recorded in 8036-8050.
A passive metastatic mouse model was constructed using B16F10 cells. On the second day of cell inoculation, different doses of SP141 were used for intervention. At the end of the modeling, the number of metastatic nodules in the lungs was recorded. As shown in FIGS. 29A-29D, SP141 can inhibit the lung metastasis of melanoma in mice, and there is a dose-response relationship. […] Conclusion: inhibition of MDM2 by SP141 can effectively reduce in vivo metastasis of melanoma in mice.
The mouse model validation was further carried out on the basis of cell model validation. A lung metastasis model with B16F10 cell tail vein injection was constructed, and on the second day, the mice were randomly grouped according to their body weight for drug intervention. As shown in FIGS. 31A-31F, the joint intervention of JWA and MDM2 has a synergistic inhibitory effect on the in vivo metastasis of melanoma. […]

MDM2 [8] = assay: MDM2 and JWA protein expression in B16F10 cells after SP141; assay type: cell-based; settings: B16F10, 0, 0.25, 0.5 μM, 24 hours
Procedure: The relationship between the expression levels of JWA and MDM2 genes and the prognosis of melanoma population was analyzed using the TCGA database. […] Meanwhile, melanoma cells B16F10 were treated respectively with 0, 0.25, 0.5 μM SP141 for 24 hours, and the protein expression levels of MDM2 and JWA were measured.

MFC = assay: CCK-8 half inhibitory concentration on gastric cancer cells; assay type: cell-based, mouse; settings: CCK-8, MFC

SMILES: CCCCCCCCCCC[C@@H](C[C@@H]1OC(=O)[C@H]1CCCCCC)OC(=O)[C@H](CC(C)C)NC=O [Orlistat]
lung wet weight (BGC823-LPC1): significant decrease | number of metastatic foci (BGC823-LPC1): significant decrease

SMILES: O=C(O[C@@H]1Cc2c(O)cc(O)cc2O[C@@H]1c1cc(O)c(O)c(O)c1)c1cc(O)c(O)c(O)c1 [EGCG]
lung metastatic foci (BGC823-LPC2 cells): did not decrease significantly | lung wet weight (BGC823-LPC2 cells): not obvious | rest of the proteins inhibited (FASN [1]; other independent molecules identified in 1.4): less than 20% | FASN inhibited (FASN [1]; residual lung metastatic lesions, vs SP141 and JP3 combined treatment group): 22% | number of perforation cells [2]: significantly reduced | expression level of FASN protein (FASN [3]): reduced | transfer related protein FAK (FASN [3]): correspondingly reduced | lung wet weight (BGC823-LPC1): significant decrease | number of metastatic foci (BGC823-LPC1): significant decrease

SMILES: CCC[C@H](NC(=O)/C(C#N)=C/c1cccc(Br)n1)c1ccccc1 [WP-1130]
scratch experiment (BGC823 LPC2 cells): consistent with those of the small chamber perforation experiment | lung metastatic foci (BGC823-LPC2 cells): decreased significantly | lung wet weight (BGC823-LPC2 cells): decreased significantly | number of cell perforations (BGC823-LPC2): significantly inhibit | expression of USP9X protein (USP9X): reduced | transfer related protein p-AKT (USP9X): correspondingly reduced

IC50 (BGC823): 599 nM | IC50 (AGS): 335 nM | IC50 (SGC7901): 687 nM | IC50 (MGC803): 616 nM | IC50 (MFC): 345 nM
SMILES: COc1ccc2[nH]c3c(-c4cccc5ccccc45)nccc3c2c1 [SP141]
fluorescence intensity of lung metastases (BGC823-luc): weaker than that of the control group | number of abdominal metastatic nodules compared with the control group ([4]; 40 mg/kg group): statistically significant | MDM2 protein levels in residual tumor tissues ([4]; 40 mg/kg group vs control, immunoblotting): significant decrease | number of gastric cancer abdominal implantation metastases ([4]; different doses intraperitoneally): could inhibit the number of gastric cancer abdominal implantation metastases | migration rate of the cells [5]: significantly slowed down | protein expression level of JWA (MDM2 [6]): no significant change | protein expression level of MDM2 (MDM2 [6]): decreased with increasing SP141 dose | number of perforated cells [7]: gradually decreased with increasing dose | number of cell perforations (AGS cells): decrease | lung metastasis of melanoma (B16F10 melanoma cells): can inhibit | JWA protein expression level (MDM2 [8]): no significant change | protein expression level of MDM2 (MDM2 [8]): decreased with increasing SP141 dose
